Tests used:
[1] = Free Gd3+ baseline / in vial, xylenol orange; assay type: physicochemical
Source text: Additionally or alternately, an improved version of the xylenol orange titration of free Gd3+ in the USP can be used as both an in-process check and a final product check. To obtain a limit of detection adequate for the product produced in the above claims, UV spectroscopy must be used in conjunction with the titration to measure the xylenol orange/free Gd reaction. Furthermore, an indirect measure of metastable intermediates is obtained when the titration reaction is allowed to proceed past the initial reaction of xylenol orange and free Gd. This is because xylenol orange will pull Gd from the metastable intermediates over time. […] Free Gadolinium was determined by using the spectrometric xylenol orange technique described in previous studies.

[2] = Free Gd3+ after exposure to bovine serum; assay type: physicochemical
Procedure: To show these metastable intermediates readily evolve into free Gd3+, Gd-DOTA was placed in a solution of bovine serum and the amount of Gd3+ was measured.
Bovine blood was obtained at a local slaughterhouse, citrated, centrifuged and serum was obtained and frozen. In tests, serum was slowly heated to body temperature and 1% Gd-DOTA by weight was added to serum and placed on rocker for 30 minutes. Ten samples were tested for each test article.

[3] = Transmetallation with ZnCl solution; assay type: physicochemical; conditions: free Gd; 10% by weight ZnCl solution; unit not given
Source text: 10% by weight ZnCl solution was used to support the serum results, arguing that Zn substitution of Gd in the chelate quantifies the stability of the Gd-DOTA in much the same way that metals in serum block Gd3+ recombination with the chelate, but with more precision, since the contents of bovine serum is variable among mammals.

[4] = Feasibility of cation exchange (sodium polystyrene sulfonate), free Gd3+ by xylenol orange; assay type: physicochemical; conditions: before sodium polystyrene sulfonate treatment
Procedure: Feasibility of cation exchange as a method of making Gd-DOTA with low metastable intermediates
Using sodium polystyrene sulfonate, rather than the polymer described above.
Ten samples were stored at room temperature with a stoichiometric amount of sodium polystyrene sulfonate.
Samples were tested using the improved spectrometric xylenol orange method.

[5] = Feasibility of excess DTPA, free Gd3+ by xylenol orange; assay type: physicochemical; conditions: new 12 hour sample before DTPA
Procedure: The metastable intermediate concentration is determined by Example 3, and associated methods described in the present application. A Gd-DOTA synthesis containing metastable intermediates is heated to 95° C. in the presence of a stoichiometric amount of DTPA sufficient to consume all the metastable intermediates. The presence of metastable intermediates can be measured as a function of time. The reaction is continued until a desired metastable intermediate content is obtained. Depending on the amount of free DOTA thus liberated, the free DOTA can be reacted with a positively charged resin, as is known in the art. Alternatively, the free DOTA may serve as a buffer against free Gd3+ formation, as is permitted in some drug formulations. Ten samples were prepared by adding stoichiometric amounts of DTPA to counter the excess Gd3+ and stored at room temperature for 24 hours. Samples were tested using the improved spectrometric xylenol orange method.

[6] = pH controlled synthesis, free Gd versus synthesis time; assay type: physicochemical
Procedure: Here, Example 1A is modified by the addition of gadolinim oxide in its entirety at first and immediately after the introduction of the DOTA, and this procedure is used to produce batch A of Gd-DOTA. Batch B is produced using the following modified procedure.
• 1. Heat reactor to 95° C. • 2. Charge water with all of gadolinium oxide • 3. Stir (stir unless otherwise indicated, nominal rate 300 rpm) until the solution is clear • 4. Add sufficient DOTA to obtain a pH of 4 • 5. When pH is >5 charge sufficient DOTA to reach pH of 4 • 6. Stir until uniformly distributed in the water, and clear • 7. If pH<4, then go to step 9 • 8. Go to step 4 • 9. Divide remaining portion of DOTA into 5 parts • 10. Add 1 part of remaining DOTA • 11. Stir until uniformly distributed in the water, and clear • 12. If DOTA remains to be added go to step 10 • 13. Continue to cook for a total of 12 hours Results

[7] = Feasibility of acid precipitation, free Gd3+ by xylenol orange; assay type: physicochemical; conditions: 12 hour sample, 1 hr 0.1 M HCl, buffer to pH 7.0, filtration
Procedure: The feasibility of acid precipitation as a method for making Gd-DOTA with low metastable intermediate forms was tested.
(§1) Ten samples were tested using the improved spectrometric xylenol orange method after 1 hr exposure to acid (0.1 M HCl), buffer to pH 7.0, and filtration of the precipitate. • 12 hour Example 1A sample was used at 803 ppm Gd3+ • After acid precipitation (N=5) • 8.6+/−9.2 ppm Gd3+ range: 15.9 ppm Gd3+ to undetectable
as §1, with “1B” for “1A”, “undetectable.” for “undetectable”

[8] = Free Gd(III) in incompletely synthesized complex solution; assay type: physicochemical; conditions: mean of five reactions
Procedure: Then, the content of free DOTA, free gadolinium, and complex was determined, and the final content of excess free DOTA was set. Five reactions were run, using 4.05 g of DOTA, 15 ml water, and 1.78 g of gadolinium oxide. Ten spectroscopic measurements using Xylenol orange were conducted. […] This is the molar amount of xylenol orange added to each reaction product. One can use: Understanding that the denominator is a constant and Abs^573 is the number of free Gd(III) ions that react with the xylenol orange. This is a conservative measure of ppm, given by the ratio of free gadolinium and total gadolinium in the reactant (×10^6). Another possible definition, which would give a higher number (less conservative) is simply comparing free gadolinium to complexed gadolinium, which would mean ppm of free gadolinium for every million complexed gadolinium.

[9] = assay type: physicochemical
Source text: Ironically, Gd-DTPA has a more favorable binding constant than does Gd-DOTA at pH 7.4. For less basic ligands like Gd-DTPA-BMA and DOTA-(gly)4, the experimental values are closer to the theoretical thermodynamic stability constant because there is less competition from available protons at pH 7.4.

CNC[C@H](O)[C@@H](O)[C@H](O)[C@H](O)CO.O=C([O-])CN1CCN(CC(=O)[O-])CCN(CC(=O)O)CCN(CC(=O)[O-])CC1.[Gd+3] [Example 1, Gd-DOTA]
Baseline Free Gd3+ ([1]; before serum, ppm adjusted to pre-diluted level at drug concentration): 0.77 +/− 0.92 ppm
In Vial ([1]; free Gd, no unit printed in this table (ppm in the 1st table)): 0.77 +/− 0.92
Free Gd+ after serum ([2]; 1% Gd-DOTA by weight in bovine serum, body temperature, rocker 30 minutes, ppm adjusted to pre-diluted level): 88 +/− 16.8 ppm
In Serum ([2]; free Gd, unit not given): 2.9 +/− 0.8
Transmetallation [3]: 88 +/− 16.8
Gd3+ of starting sample [4]: 2146 ppm
Gd3+ of starting sample [5]: 2146 ppm
Free Gd ([6]; synthesis time 4 hrs): 17,467 +/− 9.4 ppm
Free Gd ([6]; synthesis time 8 hrs): 3,448 +/− 8.9 ppm
Free Gd ([6]; synthesis time 12 hrs): 803 +/− 8.1 ppm

O=C([O-])CN1CCN(CC(=O)[O-])CCN(CC(=O)O)CCN(CC(=O)[O-])CC1.[Gd+3] [Example 2A, Gd-DOTA]
Gd3+ after acid precipitation, range (upper value, down to undetectable) [7]: ≤ 15.9 ppm
Gd3+ after acid precipitation ([7]; N=5): 8.6+/−9.2 ppm

Gd-DOTA [Example 4]
Free Gd(III), MEAN [8]: 30,989 +/− 9410 ppm

CNC[C@H](O)[C@@H](O)[C@H](O)[C@H](O)CO.O=C([O-])CN1CCN(CC(=O)[O-])CCN(CC(=O)O)CCN(CC(=O)[O-])CC1.[Gd+3] [Gd-DOTA, gadoterate meglumine, reference compound]
in-bottle measured free gadolinium ([1]; commercial product stored in bottle): 10^13 Gd3+ ions in 100 ml of GCA product
stability lower at pH 7.4 [9]: 7 orders of magnitude
